Patent US10370343B2, “[6,6] Fused bicyclic HDAC8 inhibitors” (FORMA Therapeutics, Inc., priority 2015, dated 2019)
Where a name gives a salt, the structure may show the parent alone.

Biological target: T1, Full length human recombinant HDAC8 protein (Homo sapiens, UniProt Q9BY41)
T1 construct: Full length human recombinant HDAC8 protein was expressed in baculoviral system; made in house
T1 sequence (Q9BY41 1-377): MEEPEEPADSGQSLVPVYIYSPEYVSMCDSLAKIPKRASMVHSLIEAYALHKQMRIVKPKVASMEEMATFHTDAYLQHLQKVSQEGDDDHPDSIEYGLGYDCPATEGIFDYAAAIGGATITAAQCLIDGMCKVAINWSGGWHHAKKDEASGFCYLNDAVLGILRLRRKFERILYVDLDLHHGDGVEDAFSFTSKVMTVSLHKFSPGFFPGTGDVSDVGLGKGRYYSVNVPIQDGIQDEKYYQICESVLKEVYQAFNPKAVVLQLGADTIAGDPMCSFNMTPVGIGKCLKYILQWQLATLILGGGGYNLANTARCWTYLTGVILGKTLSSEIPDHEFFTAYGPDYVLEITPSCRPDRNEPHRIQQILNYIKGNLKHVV
Assay: In vitro histone deacetylase assay: enzymatic HDAC8 electrophoretic mobility shift assay
Assay type: biochemical
Settings: electrophoretic mobility shift assay; enzyme 1 nM; 2 μM fluorescently labeled peptide substrate RHKK(Ac)-NH2; 25° C.; 12 concentrations; read-out: HDAC8 IC50
Description: The enzymatic HDAC8 assay was performed using electrophoretic mobility shift assay. Full length human recombinant HDAC8 protein was expressed in baculoviral system and purified by affinity chromatography. The enzymatic reactions were assembled in 384 well plates in a total volume of 25 μL in a reaction buffer composing: 100 mM HEPES, pH7.5, 25 mM KCl, 0.1% bovine serum albumin, 0.01% Triton X-100, 1% DMSO (from compounds) 2 μM of the fluorescently labeled peptide substrate and enzyme. The enzyme was added at a final concentration of 1 nM. The peptide substrate RHKK(Ac)—NH2 was used. The compounds were tested at 12 concentrations spaced by 3× dilution intervals. Negative control samples (0%-inhibition in the absence of inhibitor) and positive control samples (100%-inhibition) were assembled in replicates of four in each assay plate. The reactions were incubated at 25° C. and quenched by the addition of 45 μL of termination buffer (100 mM HEPES, pH 7.5, 0.01% Triton X-100, 0.05% SDS).
The terminated assay plates were analyzed on LabChip® 3000 microfluidic electrophoresis instrument (Perkin Elmer/Caliper Life Sciences). The fluorescence intensity of the electrophoretically separated de-acetylated product and substrate peptide was measured. Activity in each sample was determined as the product to sum ratio (PSR): P/(S+P), where P is the peak height of the product peptide and S is the peak height of the substrate peptide. Percent inhibition (Pinh) is determined using the following equation: Pinh=(PSR0%−PSRinh)/(PSR0%−PSR100%)*100, where PSRinh is the product sum ratio in the presence of inhibitor, PSR0% is the average product sum ration in the absence of inhibitor and PSR100% is the average product sum ratio in 100%-inhibition control samples. The IC50 values of inhibitors were determined by fitting the %-inhibition curves with 4 parameter dose-response model using XLfit 4 software.

Compound	IC50 [nM]
COc1ccc(CN2C(=O)[C@@H](C)Oc3ccc(C(=O)NO)cc32)cc1 (single isomer, unassigned) [Compound I-162]	25 to 100
O=C(NO)c1ccc2c(c1)N(Cc1ccccc1)CC(C(=O)N1CC3(CC3)c3ccccc31)O2 (stereo not shown) [Compound I-4, 4-benzyl-N-hydroxy-2-(spiro[cyclopropane-l,3′-indoline]-1′ carbonyl)-3,4-dihydro-2H-benzo[b][1,4]oxazine-6-carboxamide hydrochloride]	25 to 100
COCCn1c(N2CCCc3c(C(=O)NO)cccc32)nc2ccccc21 [Compound I-13, N-hydroxy-1-(1-(2-methoxyethyl)-1H-benzo[d]imidazol-2-yl)-1,2,3,4-tetrahydroquinoline-5-carboxamide]	> 1000
O=C(NO)c1cccc2c1CCCN2c1nc2ccccc2[nH]1 [Compound I-14, 1-(1H-1,3-benzodiazol-2-yl)-N-hydroxy-1,2,3,4-tetrahydroquinoline-5-carboxamide]	> 1000
O=C(NO)c1ccc2c(c1)N(Cc1cccc(S(=O)(=O)C(F)(F)F)c1)CCS2(=O)=O [Compound I-15, N-hydroxy-4-(3-((trifluoromethyl)sulfonyl)benzyl)-3,4-dihydro-2H-benzo[b][1,4]thiazine-6-carboxamide-1,1-dioxide]	< 25
CC(c1ccc(S(C)(=O)=O)cc1)N1CCS(=O)(=O)c2ccc(C(=O)NO)cc21 (stereo not shown) [Compound I-16, N-hydroxy-4-(1-(4-(methylsulfonyl)phenyl)ethyl)-3,4-dihydro-2H-benzo[b][1,4]thiazine-6-carboxamide-1,1-dioxide]	< 25
O=C(NO)c1ccc2c(c1)N(Cc1ccc(S(=O)(=O)C(F)(F)F)cc1)C(=O)CO2 [Compound I-17, N-hydroxy-3-oxo-4-(4-((trifluoromethyl)sulfonyl)benzyl)-3,4-dihydro-2H-benzo[b][1,4]oxazine-6-carboxamide]	< 25
O=C(NO)c1ccc2c(c1)N(Cc1cccc(S(=O)(=O)C(F)(F)F)c1)C(=O)CO2 [Compound I-18, N-hydroxy-3-oxo-4-(3-((trifluoromethyl)sulfonyl)benzyl)-3,4-dihydro-2H-benzo[b][1,4]oxazine-6-carboxamide]	100 to 1000
O=C(NO)c1ccc2c(c1)N(Cc1ccc(OC(F)(F)F)cc1)CCO2 [Compound I-19, N-hydroxy-4-(4-(trifluoromethoxy)benzyl)-3,4-dihydro-2H-benzo[b][1,4]oxazine-6-carboxamide]	25 to 100
O=C(NO)c1ccc2c(c1)N(Cc1cn3ccsc3n1)CCO2 [Compound I-21, N-hydroxy-4-(imidazo[2,1-b]thiazol-6-ylmethyl)-3,4-dihydro-2H-benzo[b][1,4]oxazine-6-carboxamide]	100 to 1000
C=C(C)CN1CCOc2ccc(C(=O)NO)cc21 [Compound I-22, N-hydroxy-4-(2-methylallyl)-3,4-dihydro-2H-benzo[b][1,4]oxazine-6-carboxamide]	100 to 1000
O=C(NO)c1ccc2c(c1)N(Cc1c(Cl)cccc1Cl)CCO2 [Compound I-23, 4-(2,6-dichlorobenzyl)-N-hydroxy-3,4-dihydro-2H-benzo[b][1,4]oxazine-6-carboxamide]	100 to 1000
O=C(NO)c1ccc2c(c1)N(Cc1cccc(F)c1)CCO2 [Compound I-24, 4-(3-fluorobenzyl)-N-hydroxy-3,4-dihydro-2H-benzo[b][1,4]oxazine-6-carboxamide]	< 25
O=C(NO)c1ccc2c(c1)N(Cc1ccccc1OC(F)(F)F)CCO2 [Compound I-25, N-hydroxy-4-(2-(trifluoromethoxy)benzyl)-3,4-dihydro-2H-benzo[b][1,4]oxazine-6-carboxamide]	100 to 1000
O=C(NO)c1ccc2c(c1)N(CC(=O)N1CCOCC1)CCO2 [Compound I-26, N-hydroxy-4-(2-morpholino-2-oxoethyl)-3,4-dihydro-2H-benzo[b][1,4]oxazine-6-carboxamide]	> 1000
CC(C)n1c(CN2CCOc3ccc(C(=O)NO)cc32)nc2ccccc21 [Compound I-28, N-hydroxy-4-((1-isopropyl-1H-benzo[d]imidazol-2-yl)methyl)-3,4-dihydro-2H-benzo[b][1,4]oxazine-6-carboxamide]	> 1000
COCCn1c(CN2CCOc3ccc(C(=O)NO)cc32)nc2ccccc21 [Compound I-29, N-hydroxy-4-((1-(2-methoxyethyl)-1H-benzo[d]imidazol-2-yl)methyl)-3,4-dihydro-2H-benzo[b][1,4]oxazine-6-carboxamide]	100 to 1000
O=C(NO)c1ccc2c(c1)N(Cc1nc3ccccc3n1CC1CC1)CCO2 [Compound I-30, 4-((1-(cyclopropylmethyl)-1H-benzo[d]imidazol-2-yl)methyl)-N-hydroxy-3,4-dihydro-2H-benzo[b][1,4]oxazine-6-carboxamide]	100 to 1000
O=C(NO)c1ccc2c(c1)N(CCc1ccc(Cl)cc1)C(=O)CO2 [Compound I-34, 4-(4-chlorophenethyl)-N-hydroxy-3-oxo-3,4-dihydro-2H-benzo[b][1,4]oxazine-6-carboxamide]	25 to 100

Results, then the compound that gave them:

IC50 [nM]	Compound
> 1000	CN1CC(C(=O)NC2CCOCC2)Oc2ccc(C(=O)NO)cc21 (stereo not shown) [Compound I-1, N^6-hydroxy-4-methyl-N^2-(tetrahydro-2H-pyran-4-yl)-3,4-dihydro-2H-benzo[b][1,4]oxazine-2,6-dicarboxamide hydrochloride]
25 to 100	O=C(NO)c1ccc2c(c1)N(Cc1ccccc1)CC(C(=O)NC1CCOCC1)O2 (stereo not shown) [Compound I-2, 4-benzyl-N^6-hydroxy-N^2-(tetrahydro-2H-pyran-4-yl)-3,4-dihydro-2H-benzo[b][1,4]oxazine-2,6-dicarboxamide]
100 to 1000	CN1CC(C(=O)N2CC3(CC3)c3ccccc32)Oc2ccc(C(=O)NO)cc21 (stereo not shown) [Compound I-3, N-hydroxy-4-methyl-2-(spiro[cyclopropane-l,3′-indoline]-1′-carbonyl)-3,4-dihydro-2H-benzo[b][1,4]oxazine-6-carboxamide hydrochloride]
25 to 100	CN1CC(C(=O)NCc2ccccc2)Oc2ccc(C(=O)NO)cc21 (stereo not shown) [Compound I-5, N^2-benzyl-N^6-hydroxy-4-methyl-3,4-dihydro-2H-benzo[b][1,4]oxazine-2,6-dicarboxamide hydrochloride]
25 to 100	O=C(NO)c1ccc2c(c1)N(Cc1ccccc1)CC(C(=O)NCc1ccccc1)O2 (stereo not shown) [Compound I-6, N^2,4-dibenzyl-N^6-hydroxy-3,4-dihydro-2H-benzo[b][1,4]oxazine-2,6-dicarboxamide]
100 to 1000	CN1CC(C(=O)NC2CCOCC2)Oc2cc(C(=O)NO)ccc21 (stereo not shown) [Compound I-7, N^7-hydroxy-4-methyl-N^2-(tetrahydro-2H-pyran-4-yl)-3,4-dihydro-2H-benzo[b][1,4]oxazine-2,7-dicarboxamide]
100 to 1000	O=C(NO)c1ccc2c(c1)OC(C(=O)NC1CCOCC1)CN2Cc1ccccc1 (stereo not shown) [Compound I-8, 4-benzyl-N^7-hydroxy-N^2-(tetrahydro-2H-pyran-4-yl)-3,4-dihydro-2H-benzo[b][1,4]oxazine-2,7-dicarboxamide]
< 25	CN1CC(C(=O)N2CC3(CC3)c3ccccc32)Oc2cc(C(=O)NO)ccc21 (stereo not shown) [Compound I-9, N-hydroxy-4-methyl-2-(spiro[cyclopropane-1,3′-indoline]-1′-carbonyl)-3,4-dihydro-2H-benzo[b][1,4]oxazine-7-carboxamide]
25 to 100	O=C(NO)c1ccc2c(c1)OC(C(=O)N1CC3(CC3)c3ccccc31)CN2Cc1ccccc1 (stereo not shown) [Compound I-10, 4-benzyl-N-hydroxy-2-(spiro[cyclopropane-1,3′-indoline]-1′-carbonyl)-3,4-dihydro-2H-benzo[b][1,4]oxazine-7-carboxamide]
25 to 100	CN1CC(C(=O)NCc2ccccc2)Oc2cc(C(=O)NO)ccc21 (stereo not shown) [Compound I-11, N^2-benzyl-N^7-hydroxy-4-methyl-3,4-dihydro-2H-benzo[b][1,4]oxazine-2,7-dicarboxamide]
100 to 1000	O=C(NO)c1ccc2c(c1)OC(C(=O)NCc1ccccc1)CN2Cc1ccccc1 (stereo not shown) [Compound I-12, N^2,4-dibenzyl-N^7-hydroxy-3,4-dihydro-2H-benzo[b][1,4]oxazine-2,7-dicarboxamide]
25 to 100	O=C(NO)c1ccc2c(c1)N(Cc1ccccc1)C(=O)CO2 [Compound I-32, 4-benzyl-N-hydroxy-3-oxo-3,4-dihydro-2H-benzo[b][1,4]oxazine-6-carboxamide]
